Laboratory results taken from US12331071B2, “Bile acid derivative salt, crystal structure thereof, preparation method therefor and use thereof” (XI'AN BIOCARE PHARMA LTD., priority 2020, dated 2025).
Structures can show the parent of a compound that is named as a salt.

What was measured:
[1] = Dynamic vapor sorption (DVS) hygroscopicity analysis; format: physicochemical
Description: The obtained solid form of the salt was analyzed by dynamic vapor sorption (DVS), using a dynamic vapor sorption analyzer with a model IGA Sorp (Hidentity Isochema). The samples are measured in gradient mode and tested over a humidity range of 0% to 90% with 10% humidity increments for each gradient.
The compound has strong hygroscopicity and is not conducive to preservation. The obtained salt solid form was analyzed by using dynamic vapor sorption (DVS). The hygroscopicity comparison between the hydrochloride salt crystalline form A and the mesylate salt crystalline form C is compared.

[2] = system: 17α-Ethinylestradiol (E2-17a) induced cholestasis in rats; assay: 17α-ethinylestradiol (E2-17α) induced cholestasis in rats; format: in vivo
Description: Experimental method: E2-17α was administered by subcutaneous injection in the neck. The test compounds were administered by gavage for 7 days after modeling. After the last day of administration, the rats were fasted but had access to water. The experiment was performed on the next day, and treatment was performed after 24 h. The rats were anesthetized by intraperitoneal injection of 20% urethane (7 ml/kg). After anesthesia, the rats were fixed on a rat board to make a median abdominal incision from the xiphoid process of the upper abdomen downward, with a 3-4 cm incision. The common bile duct was isolated. A PE-10 polyethylene catheter (inner diameter: 0.28 mm, outer diameter: 0.61 mm) was used for intubation operation of the bile ducts. During the operation, the body […] was maintained between 37° C. and 38° C. with warm lamps and air conditioners to prevent changes in bile flow rate at low temperature. After the intubation was completed, the skin was sutured to prevent the water evaporation from the abdominal cavity. The other end of the bile duct cannula was drawn out and flowed into a fixed 0.2 mL collection tube, to consecutively perform collection every 15 min for 8 times.
Before the experiment, the weight of the bile collection tube was accurately weighed and recorded as B1. After the bile collection was completed in the experiment, the total weight of the bile and the collection tube was weighed and recorded as A2. The weight of bile in the tube was calculated by subtracting B1 from A2, and converted into volume according to 1 g/mL. The amount of bile secretion of rats in each group was expressed as mean±standard deviation (Mean±S.D). Bile Flow Rate (μL/Kg/Min)=(A2−B1)×1000000/Body Weight
The blood samples were allowed to stand for 2 h at room temperature, and centrifuged at 4000 rpm for 15 min. The serum was routinely separated to detect ALT, AST, and ALP. The left serum was aliquoted and frozen at −20° C. for subsequent detection.

[3] = system: AMLN diet-induced NASH in ob/ob mice; assay: AMLN diet-induced NASH in ob/ob mice; format: in vivo
Description: Test method: (1) C57 mice and ob/ob mice were adaptively reared for 1 week. (1) The C57 mice were given LFD diet (normal mouse group), and the ob/ob mice were divided into two groups: (2) 15 mice were given LFD diet (blank control group), and the rest were given AMLN diet (containing 40 kcal % fat, 20 kcal % fructose and 2% cholesterol) for 14 weeks. (2) Sampling for pathology detection: C57+LFD diet group (n=3), ob/ob+ AMLN diet group (n=3), liver lesions were evaluated according to NAFLD activity score to estimate the degree of model construction; the mice in the ob/ob+ AMLN diet group were tested for fasting blood glucose (FBG); and blood was collected from the eye socket. The serum was separated, and ALT and insulin (INS) in the serum were detected. (3) Insulin resistance (HOMA-IR) was calculated according to HOMA-IR═INS(μ/mL)×FBG(mM)/22.5.

[4] = Stability of crystalline form during thermal treatment and grinding (XRPD); format: physicochemical
Description: The crystalline form A was heated to 100° C. through programmed temperature or kept at 80° C. for 24 h in DSC.
A certain amount of hydrochloride salt crystalline form A was added to a mortar and ground at room temperature for 5 minutes.

[5] = AMLN diet-induced Lep^ob/Lep^ob mice NASH model

## CC[C@@H]1C2C[C@H](O)CC[C@]2(C)C2CC[C@@]3(C)C(CC[C@@H]3[C@H](C)CCO[P@@]3(=O)OCC[C@@H](c4ccncc4)O3)C2[C@@H]1O.CS(=O)(=O)O (stereo partly drawn) [mesylate salt crystalline form C]
[1]; after moisture absorption
  solid state (XRPD) after DVS: changes to an amorphous form

## CC[C@@H]1C2C[C@H](O)CC[C@]2(C)C2CC[C@@]3(C)C(CC[C@@H]3[C@H](C)CCO[P@@]3(=O)OCC[C@@H](c4ccncc4)O3)C2[C@@H]1O (stereo partly drawn) [hydrochloride salt of Compound 1]
[2]; gavage for 7 days
  strength for promoting bile excretion, compared with the E2-17α group: significantly increased
[2]; gavage for 7 days, hydrochloride salt prepared in Example 3
  effect of promoting bile excretion, compared with Compound 1: superior effect of promoting bile excretion over Compound 1
[2]; versus model group (E2-17α group)
  biliary excretion amount after 120 minutes: still higher than that in the model group
[3]; [5]
  hepatocyte ballooning: reduce
  intralobular inflammation: reduce
[3]; AMLN diet-induced Lep^ob/Lep^ob mouse NASH model
  total score of NASH model: significantly reduce
[3]; NASH mice
  level of ALT in the serum: significantly reduce
  level of AST in the serum: significantly reduce
  liver fibrosis: significantly reduce

## CC[C@@H]1C2C[C@H](O)CC[C@]2(C)C2CC[C@@]3(C)C(CC[C@@H]3[C@H](C)CCO[P@@]3(=O)OCC[C@@H](c4ccncc4)O3)C2[C@@H]1O (stereo partly drawn) [hydrochloride salt crystalline form A]
[1]; relative humidity lower than 75%
  Hygroscopicity at low humidity: small
[1]; relative humidity of 80%
  Hygroscopicity (DVS results): hygroscopicity was 3.569%
[1]; versus mesylate salt crystalline form C
  overall hygroscopicity, compared between salt forms: lower than that of mesylate salt crystalline form C
[4]; ground in a mortar at room temperature for 5 minutes
  XRPD after grinding: main diffraction peaks of the obtained samples have not changed
[4]; heated to 100° C. through programmed temperature or kept at 80° C. for 24 h in DSC
  XRPD after thermal treatment: main diffraction peaks of the obtained samples have not change
